Experimental data published in patent publication US5153352A, “Process for preparation of intermediates of carbocyclic nucleoside analogs” (priority 1990, dated 1992).

Key:
in vitro = details: monkey, vero cells, MTC (minimum drug concentration causing any cytotoxicity)
[1] = system: duck hepatitis B virus (DHBV); experiment: efficacy against hepatitis B virus in vivo in ducklings; design: species or system Peking duckling infected with duck hepatitis B virus
Experimental: The test method is an adaptation of the method of Smee, et al., Antimicrob. Agents Chemotherap. 27 277 (1985). The serum level of duck hepatitis B virus (DHBV) DNA was monitored in 6 infected Peking ducklings from age 6 days to age 27 days. Four ducklings were treated with 70 mg/kg/day IP, b.i.d. of the test compound as a 3 mg/ml solution in 0.9% aqueous NaCl on days 10-17. Two control ducklings were treated with 23 ml/kg/day IP, b.i.d. of 0.9% aqueous NaCl on days 10-17. The level of DHBV DNA in the duckling serum was measured daily.

[2] = compound cytotoxicity in ATH8 cells (HIV CPE inhibition assay); format: cell-based; details: human, read-out: MTC
Experimental: The ATH8 human T-cell line expresses high levels of the CD4 surface antigen and is quite sensitive to the cytopathogenic effect (CPE) of HIV. The cells were propagated in RPMI 1640 medium supplemented with 4mM glutamine, 15% heat-inactivated fetal bovine serum (Biocell), antibiotics (50 units of penicillin and […] of streptomycin per ml), and 50 units of recombinant-derived human interleukin-2 (ala-125; AMGen Biologicals) per ml.
ATH8 cells were used as the primary target in the HIV induced CPE inhibition assay. Cells were treated with polybrene (2 ug/ml in growth medium) for 30 minutes at 37° C., then collected by gentle centrifugation (40×g for 15 minutes at room temperature) and resuspended in clarified (8000×g for 15 minutes at 4° C.) supernate freshly harvested from 48 hours post passage H9/HTL IIIB cells. Following a 60-minute adsorption period at 37° C., the cells were dispensed into the U-bottom wells of 96-well trays (1×10^4 cells in 0.1 ml per well). […] Test compounds were evaluated at seven half-log dilutions ranging from 100 uq/ml to 0.1 uq/ml. […]
Between 7 and 10 days post infection, all wells were visually monitored for the degree of CPE inhibition as reflected by cell pellet size, and aliquots were taken from selected wells for determination of cell number and viability (based on trypan blue dye exclusion).

SMILES: Nc1nc2c(ncn2C2CC(CO)C2CO)c(=O)[nH]1 (centres unmarked) [Example 1I, 9-(2',3'-Bis(hydroxymethyl)cyclobutyl)guanine]
- MCC (in vitro): 320 µg/mL
- Serum DHBV DNA ([1]; duck 1, age 6 days, before treatment): 187 ng/mL
- Serum DHBV DNA ([1]; duck 1, age 7 days, before treatment): 156 ng/mL
- Serum DHBV DNA ([1]; duck 1, age 8 days, before treatment): 168 ng/mL
- Serum DHBV DNA ([1]; duck 1, age 9 days, before treatment): 233 ng/mL
- Serum DHBV DNA ([1]; duck 1, age 10 days, 70 mg/kg/day IP days 10-17): 213 ng/mL
- Serum DHBV DNA ([1]; duck 1, age 11 days, 70 mg/kg/day IP days 10-17): 155 ng/mL
- Serum DHBV DNA ([1]; duck 1, age 12 days, 70 mg/kg/day IP days 10-17): 64 ng/mL
- Serum DHBV DNA ([1]; duck 1, age 13 days, 70 mg/kg/day IP days 10-17): 11 ng/mL
- Serum DHBV DNA ([1]; duck 1, age 14 days, 70 mg/kg/day IP days 10-17): 6 ng/mL
- Serum DHBV DNA ([1]; duck 1, age 15 days, 70 mg/kg/day IP days 10-17): < 1 ng/mL
- Serum DHBV DNA ([1]; duck 1, age 16 days, 70 mg/kg/day IP days 10-17): < 1 ng/mL
- Serum DHBV DNA ([1]; duck 1, age 17 days, 70 mg/kg/day IP days 10-17): < 1 ng/mL
- Serum DHBV DNA ([1]; duck 1, age 18 days, 70 mg/kg/day IP days 10-17): < 1 ng/mL
- Serum DHBV DNA ([1]; duck 1, age 19 days, 70 mg/kg/day IP days 10-17): < 1 ng/mL
- Serum DHBV DNA ([1]; duck 1, age 20 days, 70 mg/kg/day IP days 10-17): < 1 ng/mL
- Serum DHBV DNA ([1]; duck 1, age 21 days, 70 mg/kg/day IP days 10-17): < 1 ng/mL
- Serum DHBV DNA ([1]; duck 1, age 22 days, 70 mg/kg/day IP days 10-17): 3 ng/mL
- Serum DHBV DNA ([1]; duck 1, age 23 days, 70 mg/kg/day IP days 10-17): 12 ng/mL
- Serum DHBV DNA ([1]; duck 1, age 24 days, 70 mg/kg/day IP days 10-17): 16 ng/mL
- Serum DHBV DNA ([1]; duck 1, age 25 days, 70 mg/kg/day IP days 10-17): 31 ng/mL
- Serum DHBV DNA ([1]; duck 1, age 26 days, 70 mg/kg/day IP days 10-17): 71 ng/mL
- Serum DHBV DNA ([1]; duck 1, age 27 days, 70 mg/kg/day IP days 10-17): 134 ng/mL
- Serum DHBV DNA ([1]; duck 2, age 6 days, before treatment): 143 ng/mL
- Serum DHBV DNA ([1]; duck 2, age 7 days, before treatment): 111 ng/mL
- Serum DHBV DNA ([1]; duck 2, age 8 days, before treatment): 121 ng/mL
- Serum DHBV DNA ([1]; duck 2, age 9 days, before treatment): 102 ng/mL
- Serum DHBV DNA ([1]; duck 2, age 10 days, 70 mg/kg/day IP days 10-17): 120 ng/mL
- Serum DHBV DNA ([1]; duck 2, age 11 days, 70 mg/kg/day IP days 10-17): 61 ng/mL
- Serum DHBV DNA ([1]; duck 2, age 12 days, 70 mg/kg/day IP days 10-17): 27 ng/mL
- Serum DHBV DNA ([1]; duck 2, age 13 days, 70 mg/kg/day IP days 10-17): 2 ng/mL
- Serum DHBV DNA ([1]; duck 2, age 14 days, 70 mg/kg/day IP days 10-17): 1 ng/mL
- Serum DHBV DNA ([1]; duck 2, age 15 days, 70 mg/kg/day IP days 10-17): < 1 ng/mL
- Serum DHBV DNA ([1]; duck 2, age 16 days, 70 mg/kg/day IP days 10-17): < 1 ng/mL
- Serum DHBV DNA ([1]; duck 2, age 17 days, 70 mg/kg/day IP days 10-17): < 1 ng/mL
- Serum DHBV DNA ([1]; duck 2, age 18 days, 70 mg/kg/day IP days 10-17): < 1 ng/mL
- Serum DHBV DNA ([1]; duck 2, age 19 days, 70 mg/kg/day IP days 10-17): < 1 ng/mL
- Serum DHBV DNA ([1]; duck 2, age 20 days, 70 mg/kg/day IP days 10-17): < 1 ng/mL
- Serum DHBV DNA ([1]; duck 2, age 21 days, 70 mg/kg/day IP days 10-17): < 1 ng/mL
- Serum DHBV DNA ([1]; duck 2, age 22 days, 70 mg/kg/day IP days 10-17): < 1 ng/mL
- Serum DHBV DNA ([1]; duck 2, age 23 days, 70 mg/kg/day IP days 10-17): < 1 ng/mL
- Serum DHBV DNA ([1]; duck 2, age 24 days, 70 mg/kg/day IP days 10-17): < 1 ng/mL
- Serum DHBV DNA ([1]; duck 2, age 25 days, 70 mg/kg/day IP days 10-17): 2 ng/mL
- Serum DHBV DNA ([1]; duck 2, age 26 days, 70 mg/kg/day IP days 10-17): 2 ng/mL
- Serum DHBV DNA ([1]; duck 2, age 27 days, 70 mg/kg/day IP days 10-17): 7 ng/mL
- Serum DHBV DNA ([1]; duck 3, age 6 days, before treatment): 520 ng/mL
- Serum DHBV DNA ([1]; duck 3, age 7 days, before treatment): 311 ng/mL
- Serum DHBV DNA ([1]; duck 3, age 8 days, before treatment): 277 ng/mL
- Serum DHBV DNA ([1]; duck 3, age 9 days, before treatment): 412 ng/mL
- Serum DHBV DNA ([1]; duck 3, age 10 days, 70 mg/kg/day IP days 10-17): 377 ng/mL
- Serum DHBV DNA ([1]; duck 3, age 11 days, 70 mg/kg/day IP days 10-17): 130 ng/mL
- Serum DHBV DNA ([1]; duck 3, age 12 days, 70 mg/kg/day IP days 10-17): 77 ng/mL
- Serum DHBV DNA ([1]; duck 3, age 13 days, 70 mg/kg/day IP days 10-17): 16 ng/mL
- Serum DHBV DNA ([1]; duck 3, age 14 days, 70 mg/kg/day IP days 10-17): 2 ng/mL
- Serum DHBV DNA ([1]; duck 3, age 15 days, 70 mg/kg/day IP days 10-17): 2 ng/mL
- Serum DHBV DNA ([1]; duck 3, age 16 days, 70 mg/kg/day IP days 10-17): < 1 ng/mL
- Serum DHBV DNA ([1]; duck 3, age 17 days, 70 mg/kg/day IP days 10-17): < 1 ng/mL
- Serum DHBV DNA ([1]; duck 3, age 18 days, 70 mg/kg/day IP days 10-17): < 1 ng/mL
- Serum DHBV DNA ([1]; duck 4, age 6 days, before treatment): 288 ng/mL
- Serum DHBV DNA ([1]; duck 4, age 7 days, before treatment): 215 ng/mL
- Serum DHBV DNA ([1]; duck 4, age 8 days, before treatment): 256 ng/mL
- Serum DHBV DNA ([1]; duck 4, age 9 days, before treatment): 311 ng/mL
- Serum DHBV DNA ([1]; duck 4, age 10 days, 70 mg/kg/day IP days 10-17): 333 ng/mL
- Serum DHBV DNA ([1]; duck 4, age 11 days, 70 mg/kg/day IP days 10-17): 132 ng/mL
- Serum DHBV DNA ([1]; duck 4, age 12 days, 70 mg/kg/day IP days 10-17): 21 ng/mL
- Serum DHBV DNA ([1]; duck 4, age 13 days, 70 mg/kg/day IP days 10-17): 2 ng/mL
- Serum DHBV DNA ([1]; duck 4, age 14 days, 70 mg/kg/day IP days 10-17): 1 ng/mL
- Serum DHBV DNA ([1]; duck 4, age 15 days, 70 mg/kg/day IP days 10-17): 1 ng/mL
- Serum DHBV DNA ([1]; duck 4, age 16 days, 70 mg/kg/day IP days 10-17): 1 ng/mL
- Serum DHBV DNA ([1]; duck 4, age 17 days, 70 mg/kg/day IP days 10-17): < 1 ng/mL
- Serum DHBV DNA ([1]; duck 4, age 18 days, 70 mg/kg/day IP days 10-17): < 1 ng/mL
- Serum DHBV DNA ([1]; duck 4, age 19 days, 70 mg/kg/day IP days 10-17): < 1 ng/mL
- Serum DHBV DNA ([1]; duck 4, age 20 days, 70 mg/kg/day IP days 10-17): < 1 ng/mL
- Serum DHBV DNA ([1]; duck 4, age 21 days, 70 mg/kg/day IP days 10-17): < 1 ng/mL
- Serum DHBV DNA ([1]; duck 4, age 22 days, 70 mg/kg/day IP days 10-17): < 1 ng/mL
- Serum DHBV DNA ([1]; duck 4, age 23 days, 70 mg/kg/day IP days 10-17): < 1 ng/mL
- Serum DHBV DNA ([1]; duck 4, age 24 days, 70 mg/kg/day IP days 10-17): < 1 ng/mL
- Serum DHBV DNA ([1]; duck 4, age 25 days, 70 mg/kg/day IP days 10-17): < 1 ng/mL
- death of treated ducks ([1]; ducks 3 and 4, 70 mg/kg/day IP b.i.d. days 10-17): ducks 3 and 4 died on day 18 and day 26, respectively

SMILES: Nc1ncnc2c1ncn2C1CC(CO)C1CO (centres unmarked) [Example 4C, 9-(2',3'-Bis(hydroxymethyl)cyclobutyl)adenine]
- MCC [2]: 3.2 µg/mL
